According to ChEMBL document CHEMBL6182887, “Chemical modification of monensin as a source of potent antiplasmodial agents” (Bioorg Med Chem, 2025):

How the values were obtained:
[1] = Cytotoxicity against human Huh-7 cells assessed as reduction in cell viability incubated for 46 hrs by AlamarBlue dye based fluorescence analysis; assay type: toxicity
[2] = Selectivity index, ratio of CC50 for cytotoxicity against human Huh-7 cells to IC50 for antiplasmodial activity against hepatic stage luciferase-expressing Plasmodium berghei sporozoites infected in human Huh-7 cells; assay type: toxicity, cell-based; conditions: read-out: Ratio CC50/IC50
[3] = system: Plasmodium berghei; experiment: (§1) Antiplasmodial activity against hepatic stage luciferase-expressing Plasmodium berghei sporozoites infected in human Huh-7 cells assessed as reduction in parasite burden preincubated for 1 hrs followed by infection and measured after 46 hrs by […]; assay type: functional, organism-based
[4] = system: Plasmodium falciparum; experiment: Antiplasmodial activity against Plasmodium falciparum; assay type: functional, organism-based
[5] = system: Plasmodium berghei; experiment: as §1, with “Potency index, ratio of monensin IC50 to test compound IC50 for antiplasmodial” for “Antiplasmodial”; assay type: functional; conditions: time 47 hrs

Row | IC50 [4] [nM] | SMILES | CC50 at 46 h [1] [µM] | selectivity ratio [2] | IC50 [3] [nM] | Ratio IC50 [5]
1 |  | CC[C@@]1([C@@H]2O[C@@H]([C@H]3O[C@@](O)(CO)[C@H](C)C[C@@H]3C)C[C@@H]2C)CC[C@H]([C@]2(C)CC[C@]3(C[C@H](O)[C@@H](C)[C@@H]([C@@H](C)[C@@H](OC)[C@H](C)C(=O)OCCCC[P+](c4ccccc4)(c4ccccc4)c4ccccc4)O3)O2)O1 | 5.8 | 9.3 | 623 | 
2 | 1.52 | CC[C@@]1([C@@H]2O[C@@H]([C@H]3O[C@@](O)(COS(=O)(=O)c4ccc(C)cc4)[C@H](C)C[C@@H]3C)C[C@@H]2C)CC[C@H]([C@]2(C)CC[C@]3(C[C@H](O)[C@@H](C)[C@@H]([C@@H](C)[C@@H](OC)[C@H](C)C(=O)O)O3)O2)O1 |  |  |  | 
3 |  | CC[C@@]1([C@@H]2O[C@@H]([C@H]3O[C@@](O)(COC(=O)Nc4ccccc4)[C@H](C)C[C@@H]3C)C[C@@H]2C)CC[C@H]([C@]2(C)CC[C@]3(C[C@H](O)[C@@H](C)[C@@H]([C@@H](C)[C@@H](OC)[C@H](C)C(=O)O)O3)O2)O1 | 3.1 | 4430 | 0.7 | ~8
4 |  | CC[C@@]1([C@@H]2O[C@@H]([C@H]3O[C@@](O)(CNC(=O)c4ccccc4)[C@H](C)C[C@@H]3C)C[C@@H]2C)CC[C@H]([C@]2(C)CC[C@]3(C[C@H](O)[C@@H](C)[C@@H]([C@@H](C)[C@@H](OC)[C@H](C)C(=O)O)O3)O2)O1 | 8.4 | 1310 | 6.4 | 
5 |  | CC[C@@]1([C@@H]2O[C@@H]([C@H]3O[C@@](O)(CNC(=O)Nc4ccccc4)[C@H](C)C[C@@H]3C)C[C@@H]2C)CC[C@H]([C@]2(C)CC[C@]3(C[C@H](O)[C@@H](C)[C@@H]([C@@H](C)[C@@H](OC)[C@H](C)C(=O)O)O3)O2)O1 | 4.2 | 1450 | 2.9 | 
6 |  | CC[C@@]1([C@@H]2O[C@@H]([C@H]3O[C@@](O)(CNC(=O)CCC[P+](c4ccccc4)(c4ccccc4)c4ccccc4)[C@H](C)C[C@@H]3C)C[C@@H]2C)CC[C@H]([C@]2(C)CC[C@]3(C[C@H](O)[C@@H](C)[C@@H]([C@@H](C)[C@@H](OC)[C@H](C)C(=O)O)O3)O2)O1 | 75.3 | 50.6 | 1490 | 
7 |  | CC[C@@]1([C@@H]2O[C@@H]([C@H]3O[C@@](O)(CO)[C@H](C)C[C@@H]3C)C[C@@H]2C)CC[C@H]([C@]2(C)CC[C@]3(C[C@H](O)[C@@H](C)[C@@H]([C@@H](C)[C@@H](OC)[C@H](C)C(=O)OCc4ccccc4)O3)O2)O1 | 31.3 | 384 | 81.6 | 
8 | 1.08 | CC[C@@]1([C@@H]2O[C@@H]([C@H]3O[C@@]4(COC(=O)O4)[C@H](C)C[C@@H]3C)C[C@@H]2C)CC[C@H]([C@]2(C)CC[C@]3(C[C@H](O)[C@@H](C)[C@@H]([C@@H](C)[C@@H](OC)[C@H](C)C(=O)O)O3)O2)O1 |  |  |  | 
9 |  | COc1cc(NC(C)CCCN)c2ncccc2c1 (configuration not stated) [PRIMAQUINE] | 139 | 16.4 |  | 

Row | SMILES | IC50 [4] [nM] | CC50 at 46 h [1] [µM] | selectivity ratio [2] | IC50 [3] [nM] | Ratio IC50 [5]
10 | CC[C@@]1([C@@H]2O[C@@H]([C@H]3O[C@@](O)(CO)[C@H](C)C[C@@H]3C)C[C@@H]2C)CC[C@H]([C@]2(C)CC[C@]3(C[C@H](O)[C@@H](C)[C@@H]([C@@H](C)[C@@H](OC)[C@H](C)C(=O)O)O3)O2)O1 [MONENSIN] | 2.46 | 17.5 | 3180 | 5.5 | 
